Assay [1] has as its system Methicillin Resistant Staphylococcus aureus strain USA 200. The assay is described as follows: Minimum inhibitory concentration (MIC), CLSI broth micro-dilution, S. aureus. Format: cell-based. To be noted: Staphylococcus aureus, MRSA / USA200, MRSA USA 200, cation adjusted Mueller Hinton Broth + 0.002% Tween-80, 35° C., 22 hours. In a few lines: (§1)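 Antibacterial potency is measured as MIC by the CLSI broth dilution method. Bacteria at OD600 0.0005 in Tween-80-supplemented cation-adjusted Mueller Hinton broth face ten twofold compound dilutions for 22 h at 35° C.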
In general terms: Broth dilution looks for growth in wells or tubes with falling amounts of substance.

Assay [2] has as its system Escherichia coli ATCC 25922. The assay is described as follows: Minimum inhibitory concentration (MIC), CLSI broth micro-dilution, E. coli. Format: cell-based. To be noted: Escherichia coli, ATCC25922, 22 h. Put shortly:
as §1

Where [3] appears, read: Table 6, cation adjusted Mueller Hinton Broth + 0.002% Tween-80, 35° C.

Consider 16 compounds from patent publication US20260274892A1, “MACROCYCLIC BROAD SPECTRUM ANTIBIOTICS” (RQx Pharmaceuticals, Inc., priority 2017, published 2026).

For orientation: MIC means the lowest concentration found to suppress growth. Take `CCCCCOc1ccc(-c2nc(C)c(C(=O)N[C@@H](CCN)C(=O)N(C)[C@@H]3C(=O)N[C@@H](C)C(=O)N[C@H](C(=O)O)Cc4ccc(O)c(c4)-c4cc3ccc4OCCN)c(C)n2)cc1` (racemic) [Compound 648, rac-(8S,11S,14S)-18-(2-aminoethoxy)-3-hydroxy-11-methyl-14-[methyl-[rac-(2S)-4-amino-2-[[4,6-dimethyl-2-(4-pentoxyphenyl)pyrimidine-5-carbonyl]amino]butanoyl]amino]-10,13-dioxo-9,12-diazatricyclo [13.3.1.12,6]icosa-1(18),2(20),3,5,15(19), 16-hexaene-8-carboxylic acid]: the MIC in assay [1] (Table 8) is 0.28 µM; in assay [2] (Table 8, cation adjusted Mueller Hinton Broth + 0.002% Tween-80, 35° C.), 0.1 µM.

As to `Cc1nc([C@H]2CC[C@H](C(C)(C)C)CC2)nc(C)c1C(=O)N[C@@H](CCN)C(=O)N(C)[C@@H]1C(=O)N[C@@H](C)C(=O)N[C@H](C(=O)NCC#N)Cc2ccc(OCCN)c(c2)-c2cc1ccc2OCCN` [Compound 296, rac-(8S,11S,14S)-3,18-bis(2-aminoethoxy)-N-(cyanomethyl)-11-methyl-14-[methyl-[rac-(2S)-4-amino-2-[[2-(4-tert-butylcyclohexyl)-4,6-dimethyl-pyrimidine-5-carbonyl]amino]butanoyl]amino]-10,13-dioxo-9,12-diazatricyclo[13.3.1.12,6]icosa-1(18),2(20),3,5,15(19),16-hexaene-8-carboxamide], the MIC worked out at 0.016 µM in assay [1] (Table 6) and 0.38 µM in assay [2] (setting [3]).

With `Cc1nc([C@H]2CC[C@@H](C(C)(C)C)CC2)nc(C)c1C(=O)N[C@@H](CCN)C(=O)N(C)[C@@H]1C(=O)N[C@@H](C)C(=O)N[C@H](C(=O)NCC#N)Cc2ccc(OCCN)c(c2)-c2cc1ccc2OCCN` [Compound 297, rac-(8S,11S,14S)-3,18-bis(2-aminoethoxy)-N-(cyanomethyl)-11-methyl-14-[methyl-[rac-(2S)-4-amino-2-[[2-(4-tert-butylcyclohexyl)-4,6-dimethyl-pyrimidine-5-carbonyl]amino]butanoyl]amino]-10,13-dioxo-9,12-diazatricyclo[13.3.1.12,6]icosa-1(18),2(20),3,5,15(19),16-hexaene-8-carboxamide], the MIC was determined as 0.016 µM in assay [1] (Table 6) and 0.75 µM in assay [2] (setting [3]).

With `C[C@@H]1NC(=O)[C@@H](N(C)C(=O)[C@H](CCN)NC(=O)[C@H]2CC[C@H](c3ccc(C(C)(C)C)cc3)CC2)c2ccc(OCCN)c(c2)-c2cc(ccc2OCCN)C[C@@H](C(=O)NCC#N)NC1=O` [Compound 391, rac-(8S,11S,14S)-3,18-bis(2-aminoethoxy)-N-(cyanomethyl)-11-methyl-14-[methyl-[rac-(2S)-4-amino-2-[[4-(4-tert-butylphenyl)cyclohexanecarbonyl]amino]butanoyl]amino]-10,13-dioxo-9,12-diazatricyclo[13.3.1.12,6]icosa-1(18),2(20),3,5,15(19),16-hexaene-8-carboxamide], the MIC in assay [1] (Table 6) is 0.031 µM; in assay [2] (setting [3]), 0.25 µM.

As for `C[C@@H]1NC(=O)[C@@H](N(C)C(=O)[C@H](CCN)NC(=O)[C@H]2CC[C@@H](c3ccc(C(C)(C)C)cc3)CC2)c2ccc(OCCN)c(c2)-c2cc(ccc2OCCN)C[C@@H](C(=O)NCC#N)NC1=O` [Compound 392, rac-(8S,11S,14S)-3,18-bis(2-aminoethoxy)-N-(cyanomethyl)-11-methyl-14-[methyl-[rac-(2S)-4-amino-2-[[4-(4-tert-butylphenyl)cyclohexanecarbonyl]amino]butanoyl]amino]-10,13-dioxo-9,12-diazatricyclo[13.3.1.12,6]icosa-1(18),2(20),3,5,15(19),16-hexaene-8-carboxamide], the MIC was 0.063 µM in assay [1] (Table 6) and 3 µM in assay [2] (setting [3]).

For the compound `CCc1nc(-c2ccc(C(C)(C)C)cc2)nc(C)c1C(=O)N[C@@H](CCN)C(=O)N(C)[C@@H]1C(=O)N[C@@H](C)C(=O)N[C@H](C(=O)NCC#N)Cc2ccc(OCCN)c(c2)-c2cc1ccc2OCCN` [Compound 485], the values for the MIC in assay [1] (Table 6) and in assay [2] (setting [3]) were 0.023 µM and 0.5 µM, respectively.

On to `CCCc1nc(-c2ccc(C(C)(C)C)cc2)nc(C)c1C(=O)N[C@@H](CCN)C(=O)N(C)[C@@H]1C(=O)N[C@@H](C)C(=O)N[C@H](C(=O)NCC#N)Cc2ccc(OCCN)c(c2)-c2cc1ccc2OCCN` [Compound 486], for which the MIC in assay [1] (Table 6) stood at 0.023 µM; in assay [2] (setting [3]), 0.38 µM.

Regarding `Cc1nc(-c2ccc(C(C)(C)C)cc2)nc(C(C)C)c1C(=O)N[C@@H](CCN)C(=O)N(C)[C@@H]1C(=O)N[C@@H](C)C(=O)N[C@H](C(=O)NCC#N)Cc2ccc(OCCN)c(c2)-c2cc1ccc2OCCN` [Compound 487], the MIC is 0.016 µM in assay [1] (Table 6) and 0.38 µM in assay [2] (setting [3]).

Regarding `CNc1nc(-c2ccc(C(C)(C)C)cc2)ncc1C(=O)N[C@@H](CCN)C(=O)N(C)[C@@H]1C(=O)N[C@@H](C)C(=O)N[C@H](C(=O)NCC#N)Cc2ccc(OCCN)c(c2)-c2cc1ccc2OCCN` [Compound 489], the values for the MIC in assay [1] (Table 6) and in assay [2] (setting [3]) were 0.016 µM and 0.38 µM, respectively.

On to `C[C@@H]1NC(=O)[C@@H](N(C)C(=O)[C@H](CCN)NC(=O)c2cnc(-c3ccc(C(C)(C)C)cc3)nc2N(C)C)c2ccc(OCCN)c(c2)-c2cc(ccc2OCCN)C[C@@H](C(=O)NCC#N)NC1=O` [Compound 490], for which the MIC worked out at 0.023 µM in assay [1] (Table 6) and 1 µM in assay [2] (setting [3]).

`Cc1nc(-c2ccc(C(C)(C)C)cc2)nc(C)c1C(=O)N[C@@H](CC(C)(C)N)C(=O)N(C)[C@@H]1C(=O)N[C@@H](C)C(=O)N[C@H](C(=O)NCC#N)Cc2ccc(OCCN)c(c2)-c2cc1ccc2OCCN` [Compound 492, (8S,11S,14S)-14-[[(2S)-4-amino-2-[[2-(4-tert-butylphenyl)-4,6-dimethyl-pyrimidine-5-carbonyl]amino]-4-methyl-pentanoyl]-methyl-amino]-3,18-bis(2-aminoethoxy)-N-(cyanomethyl)-11-methyl-10,13-dioxo-9,12-diazatricyclo[13.3.1.12,6]icosa-1(18),2(20),3,5,15(19),16-hexaene-8-carboxamide]: the MIC came out at 0.016 µM in assay [1] (Table 6) and 2 µM in assay [2] (setting [3]).

As for `Cc1nc(-c2ccc(OC3CCCCC3)cc2)nc(C)c1C(=O)N[C@@H](CCNS(C)(=O)=O)C(=O)N(C)[C@@H]1C(=O)N[C@@H](C)C(=O)N[C@H](C(=O)NCC#N)Cc2ccc(OCCN)c(c2)-c2cc1ccc2OCCN` [Compound 497, (8S,11S,14S)-3,18-bis(2-aminoethoxy)-N-(cyanomethyl)-14-[[(2S)-2-[[2-[4-(cyclohexoxy)phenyl]-4,6-dimethyl-pyrimidine-5-carbonyl]amino]-4-(methanesulfonamido)butanoyl]-methyl-amino]-11-methyl-10,13-dioxo-9,12-diazatricyclo[13.3.1.12,6]icosa-1(18),2(20),3,5,15(19),16-hexaene-8-carboxamide], the MIC in assay [1] (Table 6) came out at 0.047 µM; in assay [2] (setting [3]), 0.75 µM.

For `Cc1nc(-c2ccc(OC3CCCCC3)cc2)nc(C)c1C(=O)N[C@@H](CCNC(N)=O)C(=O)N(C)[C@@H]1C(=O)N[C@@H](C)C(=O)N[C@H](C(=O)NCC#N)Cc2ccc(OCCN)c(c2)-c2cc1ccc2OCCN` [Compound 498, (8S,11S,14S)-3,18-bis(2-aminoethoxy)-N-(cyanomethyl)-14-[[(2S)-2-[[2-[4-(cyclohexoxy)phenyl]-4,6-dimethyl-pyrimidine-5-carbonyl]amino]-4-ureido-butanoyl]-methyl-amino]-11-methyl-10,13-dioxo-9,12-diazatricyclo[13.3.1.12,6]icosa-1(18),2(20),3,5,15(19),16-hexaene-8-carboxamide], the MIC in assay [1] (Table 6) came out at 0.063 µM; in assay [2] (setting [3]), 1 µM.

In the case of `Cc1nc(-c2ccc(OC3CCCCC3)cc2)nc(C)c1C(=O)N[C@@H](CNC(N)=O)C(=O)N(C)[C@@H]1C(=O)N[C@@H](C)C(=O)N[C@H](C(=O)NCC#N)Cc2ccc(OCCN)c(c2)-c2cc1ccc2OCCN` [Compound 499, (8S,11S,14S)-3,18-bis(2-aminoethoxy)-N-(cyanomethyl)-14-[[(2S)-2-[[2-[4-(cyclohexoxy)phenyl]-4,6-dimethyl-pyrimidine-5-carbonyl]amino]-3-ureido-propanoyl]-methyl-amino]-11-methyl-10,13-dioxo-9,12-diazatricyclo[13.3.1.12,6]icosa-1(18),2(20),3,5,15(19),16-hexaene-8-carboxamide], the results for the MIC in assay [1] (Table 6) and in assay [2] (setting [3]) were 0.063 µM and 1.5 µM, respectively.

Regarding `Cc1nc(-c2ccc(OC3CCCCC3)cc2)nc(C)c1C(=O)N[C@@H](CCNS(N)(=O)=O)C(=O)N(C)[C@@H]1C(=O)N[C@@H](C)C(=O)N[C@H](C(=O)NCC#N)Cc2ccc(OCCN)c(c2)-c2cc1ccc2OCCN` [Compound 500, (8S,11S,14S)-3,18-bis(2-aminoethoxy)-N-(cyanomethyl)-14-[[(2S)-2-[[2-[4-(cyclohexoxy)phenyl]-4,6-dimethyl-pyrimidine-5-carbonyl]amino]-4-(sulfamoylamino)butanoyl]-methyl-amino]-11-methyl-10,13-dioxo-9,12-diazatricyclo[13.3.1.12,6]icosa-1(18),2(20),3,5,15(19),16-hexaene-8-carboxamide], the MIC stood at 0.031 µM in assay [1] (Table 6) and 0.48 µM in assay [2] (setting [3]).

As to `Cc1nc(-c2ccc(OC3CCCCC3)cc2)nc(C)c1C(=O)N[C@@H](CCCNC(N)=O)C(=O)N(C)[C@@H]1C(=O)N[C@@H](C)C(=O)N[C@H](C(=O)NCC#N)Cc2ccc(OCCN)c(c2)-c2cc1ccc2OCCN` [Compound 501, (8S,11S,14S)-3,18-bis(2-aminoethoxy)-N-(cyanomethyl)-14-[[(2S)-2-[[2-[4-(cyclohexoxy)phenyl]-4,6-dimethyl-pyrimidine-5-carbonyl]amino]-5-ureido-pentanoyl]-methyl-amino]-11-methyl-10,13-dioxo-9,12-diazatricyclo[13.3.1.12,6]icosa-1(18),2(20),3,5,15(19),16-hexaene-8-carboxamide], the MIC in assay [1] (Table 6) turned out to be 0.063 µM; in assay [2] (setting [3]), 1 µM.
